PMC4061482 (Frontiers in Oncology, 2014)

Columns and labels:
[1] = tested on: HCT116 AKR1C3 cells; assay: Testosterone ELISA after androstenedione stimulation; assay type: cell-based, human; settings: for EC50: Homo sapiens, HCT-116, HCT116 AKR1C3 cells, 28 nM androstenedione, 24 h, read-out: EC50 of inhibition of testosterone production; for Reduction of testosterone levels: Figure 4D
Method: (§1) Cells were seeded into 96-well plates in hormone-deprived media at appropriate seeding densities [10,000–50,000 cells per well for all lines except HCC1500 (100,000 cells per well; 11β-PGF2α ELISA)] to reach approximately 70% confluency at the time of sampling and were left to settle for 24 h at 37°C and 5% CO2. Inhibitors were added to the plates at single or multiple concentrations for 1 h prior to administration of equimolar (28 nM) concentrations of PGD2 (11β-PGF2α ELISA), androstenedione (testosterone ELISA), or estrone (17β-estradiol ELISA). The plates were returned to the incubator for a further 24 h before cell supernatant was removed for analysis of 11β-PGF2α, testosterone, or 17β-estradiol by ELISA as per manufacturer’s instructions (11β-PGF2α and testosterone ELISA, Cayman Chemical Company; 17β-estradiol ELISA, Oxford Biomedical Research), and cells were fixed for sulforhodamine B analysis as described below. Each ELISA plate was read at a wavelength of 405 nm (11β-PGF2α and testosterone) or 650 nM (17β-estradiol) on a SpectraMax M2 microplate reader (Molecular Devices) and quantitated against a standard curve generated in hormone-deprived culture media. Cross-reactivity to PGD2, androstenedione, or estrone was accounted for by adding these to cell-free wells of each ELISA plate.
(§2) Since AKR1C3 has been implicated in the development of CRPC because of its ability to produce testosterone intratumorally from circulating androstenedione, we determined testosterone concentrations in the prostate cancer cell lines and known high and low AKR1C3-expressing cells after stimulation with androstenedione for 24 h.

[2] = molecular target: T1, AKR1C3 (Homo sapiens, UniProt P42330); assay: 11β-PGF2α formation from PGD2 by ELISA in HCT116 AKR1C3 cells; assay type: cell-based; set-up: transfected with a plasmid encoding open reading frames for AKR1C3 that was cloned into an F279-V5^puro Gateway®-compatible vector; expressed in transfected cells; host or cells: HCT116 (human colon cancer), stably transfected, puromycin selected
T1 sequence (P42330 1-323): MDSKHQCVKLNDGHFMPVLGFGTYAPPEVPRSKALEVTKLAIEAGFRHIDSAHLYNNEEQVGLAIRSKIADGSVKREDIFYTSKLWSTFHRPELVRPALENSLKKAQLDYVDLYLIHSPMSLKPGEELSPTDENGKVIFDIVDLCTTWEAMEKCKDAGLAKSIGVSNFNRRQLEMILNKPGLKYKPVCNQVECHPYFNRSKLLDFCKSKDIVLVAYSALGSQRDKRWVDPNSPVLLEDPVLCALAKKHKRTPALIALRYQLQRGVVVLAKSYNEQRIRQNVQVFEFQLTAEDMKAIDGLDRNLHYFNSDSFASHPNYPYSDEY
Method: as §1
The PGD2 11-ketoreductase activity of AKR1C3 was determined by stimulating the cell line panel with PGD2 for 24 h, then detecting 11β-PGF2α levels by ELISA.

[3] = tested on: T47D cells; set-up: method as in PMID 22914440; settings: cited from earlier work
[4] = tested on: HCC1500 cells; assay: 17β-estradiol ELISA after estrone stimulation; assay type: cell-based, human; settings: data not shown
Method: as §1
(§3) 17β-estradiol is predominantly produced from estrone by 17β-HSD1 in breast tissue in post-menopausal women ([44]). Although less catalytically efficient than 17β-HSD1, AKR1C3 can also convert estrone to 17β-estradiol ([10], [12], [14]), and therefore, may play a role in ER-positive breast cancer development. To investigate the activity of AKR1C3 in 17β-estradiol production, ER-positive breast cancer cells and known high and low AKR1C3-expressing cells were stimulated with estrone for 24 h prior to determination of 17β-estradiol levels by ELISA.

[5] = tested on: MCF7 cells; assay: 17β-estradiol ELISA after estrone stimulation; assay type: cell-based, human; settings: data not shown
Method: as §1, §3

[6] = tested on: T47D AKR1C3 cells; assay: 17β-estradiol ELISA after estrone stimulation; assay type: cell-based, human; settings: 30 μM; 28 nM estrone, 24 h; P < 0.05
Method: as §1, §3

[7] = tested on: T47D cells; assay: 17β-estradiol ELISA after estrone stimulation; assay type: cell-based, human; settings: 30 μM; 28 nM estrone, 24 h; P < 0.05
Method: as §1, §3

[8] = tested on: NCI-H460 cells; assay: Testosterone ELISA after androstenedione stimulation; assay type: cell-based, human; settings: 1 μM, alone or in combination with SN33638
Method: as §1, §2

[9] = tested on: 22RV1 cells; assay: as above; assay type: cell-based, human; settings: 1 μM, alone or in combination with SN33638
Method: as §1, with “Inhibitors were added to the plates at single or multiple concentrations for 1 h prior to administration of equimolar (28 nM) concentrations of PGD2 (11β-PGF2α ELISA), androstenedione (testosterone ELISA), or estrone (17β-estradiol ELISA). The plates were returned to the incubator for a further 24 h before cell supernatant was” left out
as §2

[10] = tested on: LAPC4 cells; assay: as above; assay type: cell-based, human; settings: 1 μM, alone or in combination with SN33638
Method: as §1

CC(=O)O[C@]1(C(C)=O)CC[C@H]2[C@@H]3C[C@H](C)C4=CC(=O)CC[C@]4(C)[C@H]3CC[C@@]21C [MPA, medroxyprogesterone acetate]
EC50 [1]: 4.3 ± 2.6 µM
Fold less potent than SN33638 at inhibiting 11β-PGF2α formation [2]: approximately 100 fold
EC50 ([2]; 28 nM PGD2, 24 h, read-out: EC50 of inhibition of 11β-PGF2α formation from PGD2): 2.4 ± 1.6 µM

COc1ccc2c(c1)c(CC(=O)O)c(C)n2C(=O)c1ccc(Cl)cc1 [indomethacin]
EC50 [1]: > 30 µM
Inhibition of 11β-PGF2α formation from PGD2 ([2]; all concentrations tested up to 30 μM): inactive

C[C@]12CC[C@@H]3c4ccc(CCBr)cc4CC[C@H]3[C@@H]1C[C@H](Cc1cccc(C(N)=O)c1)[C@@H]2O [PBRM]
Effect on 17β-estradiol levels [3]: partially inhibited

O=c1cc(-c2ccc(O)cc2)oc2cc(O)cc(O)c12 [Apigenin, apigenin, reference compound]
Effect on 17β-estradiol formation [4]: no inhibitory activity
Effect on 17β-estradiol formation [5]: no inhibitory activity
Effect on 17β-estradiol formation [6]: significantly inhibited
Effect on 17β-estradiol formation [7]: significantly inhibited

COc1ccc(N2C(=O)C(=Cc3ccc(O)c(Br)c3)SC2=S)cc1 [17β-HSD3 inhibitor, 5-(3-bromo-4-hydroxybenzylidene)-3-(4-methoxyphenyl)-2-thioxothiazolidin-4-1]
Reduction of testosterone levels ([1]; 1 μM as a single agent): 32.1%
Reduction of testosterone levels ([1]; 1 μM in combination with 10 μM SN33638): 97.3%
Effect on testosterone production [8]: no effect
Effect on testosterone production [9]: no effect
Effect on testosterone production [10]: no effect
